US8637499B2, “Benzoxazepines as inhibitors of PI3K/mTOR and methods of their use and manufacture” (Exelixis, Inc., priority 2009, dated 2014)
pIC50: −log10 of the molar value. Where “and” joins values, the source holds several entries; their conditions need not be identical. Identical values can stand only once.

Target: mTORC1 (mTOR/GbL/Raptor) (Homo sapiens, UniProt P42345)
Assay: mTOR/GbL/Raptor (mTORC1) ELISA Assay
Format: biochemical
Settings: 0.2 nM mTORC1, 10 μM ATP, 50 nM NHis-tagged 4E-BP1; phosphorylation of 4E-BP1; read-out: IC50
Experimental: mTOR/GbL/Raptor (mTORC1) ELISA Assay
The measurement of mTORC1 enzyme activity was performed in an ELISA assay format following the phosphorylation of 4E-BP1 protein. All experiments were performed in the 384-well format. Generally, 0.5 μL DMSO containing varying concentrations of the test compound was mixed with 15 μL enzyme solution. Kinase reactions were initiated with the addition of 15 μL of substrates-containing solution. The assay conditions were as follows; 0.2 nM mTORC1, 10 μM ATP and 50 nM NHis-tagged 4E-BP1 in 20 mM Hepes, pH 7.2, 1 mM DTT, 50 mM NaCl, 10 mM MnCl2, 0.02 mg/mL BSA, 0.01% CHAPS, 50 mM β-glycerophosphate. Following an incubation of 120 minutes at ambient temperature, 20 μL of the reaction volume was transferred to a Ni-Chelate-coated 384-well plate. The binding step of the 4E-BP1 protein proceeded for 60 minutes, followed by washing 4 times each with 50 μL of Tris-buffered saline solution (TBS). Anti-phospho-4E-BP1 rabbit-IgG (20 μL, 1:5000) in 5% BSA-TBST (0.2% Tween-20 in TBS) was added and further incubated for 60 minutes. Incubation with a secondary HRP-tagged anti-IgG was similarly performed after washing off the primary antibody (4 washes of 50 μL). Following the final wash step with TBST, 20 μL of SuperSignal ELISA Femto (Pierce Biotechnology) was added and the luminescence measured using an EnVision plate reader.

Row | pIC50 | Structure (SMILES)
1 | 5.59 to 6.15 | Cc1nc2cc(-c3ccc4c(c3)CN(C(=O)N3CC[C@@](C)(O)C[C@@H]3c3ccccc3)CCO4)ccc2[nH]1 (racemic) [Compound 133, (±)-(2R,4R)-4-methyl-1-{[7-(2-methyl-1H-benzimidazol-5-yl)-2,3-dihydro-1,4-benzoxazepin-4(5H)-yl]carbonyl}-2-phenylpiperidin-4-ol]
2 | 5.59 to 6.15 | CC1CCN(C(=O)N2CCOc3ccc(-c4ccc(N)nn4)cc3C2)CC1 [Compound 1, 6-{4-[(4-methylpiperidin-1-yl)carbonyl]-2,3,4,5-tetrahydro-1,4-benzoxazepin-7-yl}pyridazin-3-amine]
3 | 5.59 to 6.15 | CC1CCN(C(=O)N2CCOc3ccc(-c4cnc(N)cn4)cc3C2)CC1 [Compound 4, 5-{4-[(4-methylpiperidin-1-yl)carbonyl]-2,3,4,5-tetrahydro-1,4-benzoxazepin-7-yl}pyrazin-2-amine]
4 | 6.15 to 6.60 | Nc1cnc(-c2ccc3c(c2)CN(C(=O)N2CCC(C(F)(F)F)CC2)CCO3)cn1 [Compound 6, 5-(4-{[4-(trifluoromethyl)piperidin-1-yl]carbonyl}-2,3,4,5-tetrahydro-1,4-benzoxazepin-7-yl)pyrazin-2-amine]
5 | 5.59 to 6.15 | CC1CCN(C(=O)N2CCOc3ccc(-c4cc(N)[nH]n4)cc3C2)CC1 [Compound 10, 3-{4-[(4-methylpiperidin-1-yl)carbonyl]-2,3,4,5-tetrahydro-1,4-benzoxazepin-7-yl}-1H-pyrazol-5-amine]
6 | ≥ 7.30 | Cc1nc2ccc(-c3ccc4c(c3)CN(C(=O)N3CCCC[C@H]3c3ccccc3)CCO4)cc2[nH]1 [Compound 65, 7-(2-methyl-1H-benzimidazol-6-yl)-4-{[(2S)-2-phenylpiperidin-1-yl]carbonyl}-2,3,4,5-tetrahydro-1,4-benzoxazepine]
7 | 5.59 to 6.15 | Cc1nc2ccc(-c3ccc4c(c3)CN(C(=O)N3[C@@H]5CC[C@H]3C[C@@H](N)C5)CCO4)cc2[nH]1 [Compound 77, 8-{[7-(2-methyl-1H-benzimidazol-6-yl)-2,3-dihydro-1,4-benzoxazepin-4(5H)-yl]carbonyl}-8-azabicyclo[3.2.1]octan-3-(endo)-amine]
8 | 6.15 to 6.60 | Cc1nc2ccc(-c3ccc4c(c3)CN(C(=O)N3CCCCC3Cc3ccccc3)CCO4)cc2[nH]1 (centres unmarked) [Compound 104, 7-(2-methyl-1H-benzimidazol-6-yl)-4-{[2-(phenylmethyl)piperidin-1-yl]carbonyl}-2,3,4,5-tetrahydro-1,4-benzoxazepine]
9 | 5.59 to 6.15 | Cc1nc2ccc(-c3ccc4c(c3)CN(C(=O)N3CCCCC3c3ccc(F)cc3C)CCO4)cc2[nH]1 (centres unmarked) [Compound 117, 4-{[2-(4-fluoro-2-methylphenyl)piperidin-1-yl]carbonyl}-7-(2-methyl-1H-benzimidazol-6-yl)-2,3,4,5-tetrahydro-1,4-benzoxazepine]
10 | 5.59 to 6.15 | Cc1nc2ccc(-c3ccc4c(c3)CN(C(=O)N3CCCCC3c3ccccc3C)CCO4)cc2[nH]1 (centres unmarked) [Compound 126, 7-(2-methyl-1H-benzimidazol-6-yl)-4-{[2-(2-methylphenyl)piperidin-1-yl]carbonyl}-2,3,4,5-tetrahydro-1,4-benzoxazepine]
11 | 6.15 to 6.60 | Cc1nc2ccc(-c3ccc4c(c3)CN(C(=O)N3CCC(O)(c5ccc(C(F)(F)F)cc5)CC3)CCO4)cc2[nH]1 [Compound 141, 1-{[7-(2-methyl-1H-benzimidazol-6-yl)-2,3-dihydro-1,4-benzoxazepin-4(5H)-yl]carbonyl}-4-[4-(trifluoromethyl)phenyl]piperidin-4-ol]
12 | 6.15 to 6.60 | Cc1nc2ccc(-c3ccc4c(c3)CN(C(=O)N3CCN(C)C(=O)C3)CCO4)cc2[nH]1 [Compound 146, 1-methyl-4-{[7-(2-methyl-1H-benzimidazol-6-yl)-2,3-dihydro-1,4-benzoxazepin-4(5H)-yl]carbonyl}piperazin-2-one]
13 | 5.59 to 6.15 | Cc1nc2ccc(-c3ccc4c(c3)CN(C(=O)NC3[C@H]5C[C@@H]6C[C@@H](C[C@H]3C6)C5)CCO4)cc2[nH]1 (stereo partly drawn) [Compound 149, 7-(2-methyl-1H-benzimidazol-6-yl)-N-[(1r,3r,5R,7R)-tricyclo[3.3.1.1~3,7~]dec-2-yl]-2,3-dihydro-1,4-benzoxazepine-4(5H)-carboxamide]
14 | 6.15 to 6.60 | Cc1nc2ccc(-c3ccc4c(c3)CN(C(=O)N3CCN(Cc5c(F)cccc5Cl)CC3)CCO4)cc2[nH]1 [Compound 152, 4-({4-[(2-chloro-6-fluorophenyl)methyl]piperazin-1-yl}carbonyl)-7-(2-methyl-1H-benzimidazol-6-yl)-2,3,4,5-tetrahydro-1,4-benzoxazepine]
15 | 6.15 to 6.60 | CCC1CC2(CCN(C(=O)N3CCOc4ccc(-c5ccc6nc(C)[nH]c6c5)cc4C3)CC2)CC(=O)N1 (centres unmarked) [Compound 155, 4-ethyl-9-{[7-(2-methyl-1H-benzimidazol-6-yl)-2,3-dihydro-1,4-benzoxazepin-4(5H)-yl]carbonyl}-3,9-diazaspiro[5.5]undecan-2-one]
16 | 5.59 to 6.15 | Cc1nc2ccc(-c3ccc4c(c3)CN(C(=O)N3CCN(c5ccccc5Cl)CC3)CCO4)cc2[nH]1 [Compound 159, 4-{[4-(2-chlorophenyl)piperazin-1-yl]carbonyl}-7-(2-methyl-1H-benzimidazol-6-yl)-2,3,4,5-tetrahydro-1,4-benzoxazepine]
17 | 5.59 to 6.15 | COc1cccc(N2CCN(C(=O)N3CCOc4ccc(-c5ccc6nc(C)[nH]c6c5)cc4C3)CC2)c1 [Compound 160, 7-(2-methyl-1H-benzimidazol-6-yl)-4-({4-[3-(methyloxy)phenyl]piperazin-1-yl}carbonyl)-2,3,4,5-tetrahydro-1,4-benzoxazepine]
18 | 5.59 to 6.15 | Cc1nc2ccc(-c3ccc4c(c3)CN(C(=O)N3CCN(c5ccccc5F)CC3)CCO4)cc2[nH]1 [Compound 165, 4-{[4-(2-fluorophenyl)piperazin-1-yl]carbonyl}-7-(2-methyl-1H-benzimidazol-6-yl)-2,3,4,5-tetrahydro-1,4-benzoxazepine]
19 | 6.15 to 6.60 | Cc1nc2ccc(-c3ccc4c(c3)CN(C(=O)N3CCC(Cc5ccccc5)CC3)CCO4)cc2[nH]1 [Compound 171, 7-(2-methyl-1H-benzimidazol-6-yl)-4-{[4-(phenylmethyl)piperidin-1-yl]carbonyl}-2,3,4,5-tetrahydro-1,4-benzoxazepine]
20 | 6.15 to 6.60 | CCCCN(Cc1ccccc1)C(=O)N1CCOc2ccc(-c3ccc4nc(C)[nH]c4c3)cc2C1 [Compound 173, N-butyl-7-(2-methyl-1H-benzimidazol-6-yl)-N-(phenylmethyl)-2,3-dihydro-1,4-benzoxazepine-4(5H)-carboxamide]

Target: PI3Kα (Homo sapiens, UniProt P42336)
Assay: PI3K Biochemical Assays (ATP consumption, luciferase-luciferin chemiluminescence)
Settings: PI3Kα 1.5 nM, ATP 1 μM, PIP2 10 μM; percent of ATP consumed
Experimental: PI3Kα activity is measured as the percent of ATP consumed following the kinase reaction using luciferase-luciferin-coupled chemiluminescence. Reactions were conducted in 384-well white, medium binding microtiter plates (Greiner). Kinase reactions were initiated by combining test compounds, ATP, substrate (PIP2), and kinase in a 20 μL volume in a buffer solution. The standard PI3Kalpha assay buffer is composed 50 mM Tris, pH 7.5, 1 mM EGTA, 10 mM MgCl2, 1 mM DTT and 0.03% CHAPS. The standard assay concentrations for enzyme, ATP, and substrate are 1.5 nM, 1 μM, and 10 μM, respectively. The reaction mixture was incubated at ambient temperature for approximately 2 h. Following the kinase reaction, a 10 μL aliquot of luciferase-luciferin mix (Promega Kinase-Glo) was added and the chemiluminescence signal measured using a Victor2 plate reader (Perkin Elmer). Total ATP consumption was limited to 40-60% and IC50 values of control compounds correlate well with literature references. Substituting PI3Kα with PI3KIβ, […], or […], the inhibitory activity of the compounds for the other isoforms of I3K were measured.

PI3Kα, sequence (P42336 whole entry): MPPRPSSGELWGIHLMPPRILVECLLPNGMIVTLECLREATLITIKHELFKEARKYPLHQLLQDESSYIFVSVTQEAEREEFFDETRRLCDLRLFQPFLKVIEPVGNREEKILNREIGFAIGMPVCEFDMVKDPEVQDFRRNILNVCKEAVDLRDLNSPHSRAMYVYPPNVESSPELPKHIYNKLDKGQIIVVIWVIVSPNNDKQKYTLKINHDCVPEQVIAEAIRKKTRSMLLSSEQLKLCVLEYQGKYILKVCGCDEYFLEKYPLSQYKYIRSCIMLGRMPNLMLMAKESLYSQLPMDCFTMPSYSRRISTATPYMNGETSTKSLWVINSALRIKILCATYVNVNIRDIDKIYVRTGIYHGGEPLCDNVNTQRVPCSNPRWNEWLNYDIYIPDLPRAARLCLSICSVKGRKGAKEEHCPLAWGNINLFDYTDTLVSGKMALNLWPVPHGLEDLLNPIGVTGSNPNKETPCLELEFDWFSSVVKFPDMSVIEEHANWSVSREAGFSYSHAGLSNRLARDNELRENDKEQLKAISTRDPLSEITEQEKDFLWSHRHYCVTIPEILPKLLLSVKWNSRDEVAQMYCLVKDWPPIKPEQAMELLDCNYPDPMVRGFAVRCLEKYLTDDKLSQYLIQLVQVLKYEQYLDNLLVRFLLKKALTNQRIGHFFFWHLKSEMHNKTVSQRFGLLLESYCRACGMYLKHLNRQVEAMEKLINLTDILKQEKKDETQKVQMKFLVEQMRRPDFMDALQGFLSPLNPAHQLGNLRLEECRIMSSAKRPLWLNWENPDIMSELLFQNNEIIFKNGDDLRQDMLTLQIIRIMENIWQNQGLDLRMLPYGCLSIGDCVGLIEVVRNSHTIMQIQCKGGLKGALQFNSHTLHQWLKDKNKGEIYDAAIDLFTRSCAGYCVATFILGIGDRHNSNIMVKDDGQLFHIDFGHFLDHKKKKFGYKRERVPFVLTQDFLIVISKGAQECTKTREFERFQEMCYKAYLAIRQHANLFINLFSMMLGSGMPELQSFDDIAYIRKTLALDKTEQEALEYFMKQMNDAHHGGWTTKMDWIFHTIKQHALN
PI3Kα, sequence (P27986 whole entry partner): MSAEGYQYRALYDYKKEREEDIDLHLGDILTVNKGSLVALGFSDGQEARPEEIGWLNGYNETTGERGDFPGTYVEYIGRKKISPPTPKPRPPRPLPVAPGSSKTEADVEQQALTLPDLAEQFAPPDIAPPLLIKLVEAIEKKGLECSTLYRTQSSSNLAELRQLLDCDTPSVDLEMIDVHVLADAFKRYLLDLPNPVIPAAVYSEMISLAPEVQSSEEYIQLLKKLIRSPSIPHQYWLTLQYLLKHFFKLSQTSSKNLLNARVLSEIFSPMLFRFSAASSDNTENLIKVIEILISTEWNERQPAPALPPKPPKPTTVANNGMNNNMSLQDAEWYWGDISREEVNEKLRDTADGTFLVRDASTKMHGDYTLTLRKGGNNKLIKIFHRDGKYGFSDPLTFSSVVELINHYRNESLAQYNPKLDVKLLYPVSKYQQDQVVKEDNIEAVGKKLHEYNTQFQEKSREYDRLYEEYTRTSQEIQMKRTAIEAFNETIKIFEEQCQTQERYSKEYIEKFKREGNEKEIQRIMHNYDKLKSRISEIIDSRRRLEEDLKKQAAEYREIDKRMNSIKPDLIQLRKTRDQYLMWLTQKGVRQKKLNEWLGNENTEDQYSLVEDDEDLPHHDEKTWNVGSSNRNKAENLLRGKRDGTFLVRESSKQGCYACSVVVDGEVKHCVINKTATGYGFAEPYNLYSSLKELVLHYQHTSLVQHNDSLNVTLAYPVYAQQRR

Row | pIC50 | Structure (SMILES)
21 | 5.52 to 6.00 | CC1CCN(C(=O)N2CCOc3ccc(-c4cc(NCc5ccccc5)[nH]n4)cc3C2)CC1 [Compound 9, 3-{4-[(4-methylpiperidin-1-yl)carbonyl]-2,3,4,5-tetrahydro-1,4-benzoxazepin-7-yl}-N-(phenylmethyl)-1H-pyrazol-5-amine]
22 | 6.30 to 6.70 and 6.00 to 6.30 | Cc1nc2ccc(-c3ccc4c(c3)CN(C(=O)N3CCC(C5CCNCC5)CC3)CCO4)cc2[nH]1 [Compound 71, 1-{[7-(2-methyl-1H-benzimidazol-6-yl)-2,3-dihydro-1,4-benzoxazepin-4(5H)-yl]carbonyl}-4,4-bipiperidine]
23 | 6.00 to 6.30 | Cc1nc2ccc(-c3ccc4c(c3)CN(C(=O)N3CC[C@@H](O)C3)CCO4)cc2[nH]1 [Compound 78, (3R)-1-{[7-(2-methyl-1H-benzimidazol-6-yl)-2,3-dihydro-1,4-benzoxazepin-4(5H)-yl]carbonyl}pyrrolidin-3-ol]
24 | 5.52 to 6.00 | Cc1nc2ccc(-c3ccc4c(c3)CN(C(=O)N3CC[C@H](O)C3)CCO4)cc2[nH]1 [Compound 82, (3S)-1-{[7-(2-methyl-1H-benzimidazol-6-yl)-2,3-dihydro-1,4-benzoxazepin-4(5H)-yl]carbonyl}pyrrolidin-3-ol]
25 | 6.00 to 6.30 | Cc1nc2ccc(-c3ccc4c(c3)CN(C(=O)N3CCCC3)CCO4)cc2[nH]1 [Compound 87, 7-(2-methyl-1H-benzimidazol-6-yl)-4-(pyrrolidin-1-ylcarbonyl)-2,3,4,5-tetrahydro-1,4-benzoxazepine]
26 | 5.52 to 6.00 | Cc1nc2ccc(-c3ccc4c(c3)CN(C(=O)N3CC[S+]([O-])CC3)CCO4)cc2[nH]1 [Compound 101, 7-(2-methyl-1H-benzimidazol-6-yl)-4-[(1-oxidothiomorpholin-4-yl)carbonyl]-2,3,4,5-tetrahydro-1,4-benzoxazepine]
